Test results from PubChem BioAssay (NCI).
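These data come from cells grown in 96-well plates and exposed to compound for 48 hours at five concentrations. GI50 is the concentration that inhibits growth by half. TGI is the concentration that stops growth completely.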

What was measured:
Assay in all cases: NCI tumour cell line growth inhibition, 48 h
786-0 renal = tested on: 786-0 renal
A498 renal = tested on: A498 renal
A549 NSCLC = tested on: A549 NSCLC
ACHN renal = tested on: ACHN renal
BT-549 breast = tested on: BT-549 breast
CAKI-1 renal = tested on: CAKI-1 renal
CCRF-CEM leukemia = tested on: CCRF-CEM leukemia
COLO 205 colon = tested on: COLO 205 colon
DU-145 prostate = tested on: DU-145 prostate
EKVX NSCLC = tested on: EKVX NSCLC
HCC-2998 colon = tested on: HCC-2998 colon
HCT-116 colon = tested on: HCT-116 colon
HCT-15 colon = tested on: HCT-15 colon
HL-60(TB) leukemia = tested on: HL-60(TB) leukemia
HOP-62 NSCLC = tested on: HOP-62 NSCLC
HOP-92 NSCLC = tested on: HOP-92 NSCLC
HS 578T breast = tested on: HS 578T breast
HT29 colon = tested on: HT29 colon
IGROV1 ovarian = tested on: IGROV1 ovarian
K-562 leukemia = tested on: K-562 leukemia
KM12 colon = tested on: KM12 colon
LOX IMVI melanoma = tested on: LOX IMVI melanoma
M14 melanoma = tested on: M14 melanoma
MALME-3M melanoma = tested on: MALME-3M melanoma
MCF7 breast = tested on: MCF7 breast
MDA-MB-231 breast = tested on: MDA-MB-231 breast
MDA-MB-435 = tested on: MDA-MB-435
MOLT-4 leukemia = tested on: MOLT-4 leukemia
NCI-H226 lung = tested on: NCI-H226 lung
NCI-H23 lung = tested on: NCI-H23 lung
NCI-H460 lung = tested on: NCI-H460 lung
NCI-H522 lung = tested on: NCI-H522 lung
NCI/ADR-RES ovarian = tested on: NCI/ADR-RES ovarian
OVCAR-3 ovarian = tested on: OVCAR-3 ovarian
OVCAR-4 ovarian = tested on: OVCAR-4 ovarian
OVCAR-5 ovarian = tested on: OVCAR-5 ovarian
OVCAR-8 ovarian = tested on: OVCAR-8 ovarian
PC-3 prostate = tested on: PC-3 prostate
RPMI-8226 leukemia = tested on: RPMI-8226 leukemia
RXF 393 renal = tested on: RXF 393 renal
SF-268 CNS = tested on: SF-268 CNS
SF-295 CNS = tested on: SF-295 CNS
SF-539 CNS = tested on: SF-539 CNS
SK-MEL-2 melanoma = tested on: SK-MEL-2 melanoma
SK-MEL-28 melanoma = tested on: SK-MEL-28 melanoma
SK-MEL-5 melanoma = tested on: SK-MEL-5 melanoma
SK-OV-3 ovarian = tested on: SK-OV-3 ovarian
SN12C renal = tested on: SN12C renal
SNB-19 CNS = tested on: SNB-19 CNS
SNB-75 CNS = tested on: SNB-75 CNS
SR leukemia = tested on: SR leukemia
SW-620 colon = tested on: SW-620 colon
T-47D breast = tested on: T-47D breast
TK-10 renal = tested on: TK-10 renal
U251 CNS = tested on: U251 CNS
UACC-257 melanoma = tested on: UACC-257 melanoma
UACC-62 melanoma = tested on: UACC-62 melanoma
UO-31 renal = tested on: UO-31 renal

O=c1[nH]c(Sc2sc3ccc(Cl)cc3c2CBr)nc(=S)[nH]1
GI50 (786-0 renal): > 100 µM | TGI (786-0 renal): > 100 µM | GI50 (A498 renal): > 100 µM | TGI (A498 renal): > 100 µM | GI50 (A549 NSCLC): > 100 µM | TGI (A549 NSCLC): > 100 µM | GI50 (ACHN renal): > 100 µM | TGI (ACHN renal): > 100 µM | GI50 (BT-549 breast): > 100 µM | TGI (BT-549 breast): > 100 µM | GI50 (CAKI-1 renal): > 100 µM | TGI (CAKI-1 renal): > 100 µM | GI50 (CCRF-CEM leukemia): > 100 µM | TGI (CCRF-CEM leukemia): > 100 µM | GI50 (COLO 205 colon): > 100 µM | TGI (COLO 205 colon): > 100 µM | GI50 (DU-145 prostate): > 100 µM | TGI (DU-145 prostate): > 100 µM | GI50 (EKVX NSCLC): > 100 µM | TGI (EKVX NSCLC): > 100 µM | GI50 (HCC-2998 colon): > 100 µM | TGI (HCC-2998 colon): > 100 µM | GI50 (HCT-116 colon): > 100 µM | TGI (HCT-116 colon): > 100 µM | GI50 (HCT-15 colon): > 100 µM | TGI (HCT-15 colon): > 100 µM | GI50 (HL-60(TB) leukemia): > 100 µM | TGI (HL-60(TB) leukemia): > 100 µM | GI50 (HOP-62 NSCLC): > 100 µM | TGI (HOP-62 NSCLC): > 100 µM | GI50 (HOP-92 NSCLC): > 100 µM | TGI (HOP-92 NSCLC): > 100 µM | GI50 (HS 578T breast): > 100 µM | TGI (HS 578T breast): > 100 µM | GI50 (HT29 colon): > 100 µM | TGI (HT29 colon): > 100 µM | GI50 (IGROV1 ovarian): > 100 µM | TGI (IGROV1 ovarian): > 100 µM | GI50 (K-562 leukemia): > 100 µM | TGI (K-562 leukemia): > 100 µM | GI50 (KM12 colon): > 100 µM | TGI (KM12 colon): > 100 µM | GI50 (LOX IMVI melanoma): > 100 µM | TGI (LOX IMVI melanoma): > 100 µM | GI50 (M14 melanoma): > 100 µM | TGI (M14 melanoma): > 100 µM | GI50 (MALME-3M melanoma): > 100 µM | TGI (MALME-3M melanoma): > 100 µM | GI50 (MCF7 breast): > 100 µM | TGI (MCF7 breast): > 100 µM | GI50 (MDA-MB-231 breast): > 100 µM | TGI (MDA-MB-231 breast): > 100 µM | GI50 (MDA-MB-435): > 100 µM | TGI (MDA-MB-435): > 100 µM | GI50 (MOLT-4 leukemia): 99.1 µM | TGI (MOLT-4 leukemia): > 100 µM | GI50 (NCI-H226 lung): > 100 µM | TGI (NCI-H226 lung): > 100 µM | GI50 (NCI-H23 lung): > 100 µM | TGI (NCI-H23 lung): > 100 µM | GI50 (NCI-H460 lung): > 100 µM | TGI (NCI-H460 lung): > 100 µM | GI50 (NCI-H522 lung): > 63.8 µM | TGI (NCI-H522 lung): > 100 µM | GI50 (NCI/ADR-RES ovarian): > 100 µM | TGI (NCI/ADR-RES ovarian): > 100 µM | GI50 (OVCAR-3 ovarian): > 100 µM | TGI (OVCAR-3 ovarian): > 100 µM | GI50 (OVCAR-4 ovarian): > 100 µM | TGI (OVCAR-4 ovarian): > 100 µM | GI50 (OVCAR-5 ovarian): > 100 µM | TGI (OVCAR-5 ovarian): > 100 µM | GI50 (OVCAR-8 ovarian): > 100 µM | TGI (OVCAR-8 ovarian): > 100 µM | GI50 (PC-3 prostate): > 100 µM | TGI (PC-3 prostate): > 100 µM | GI50 (RPMI-8226 leukemia): > 100 µM | TGI (RPMI-8226 leukemia): > 100 µM | GI50 (RXF 393 renal): > 81.7 µM | TGI (RXF 393 renal): > 100 µM | GI50 (SF-268 CNS): > 100 µM | TGI (SF-268 CNS): > 100 µM | GI50 (SF-295 CNS): > 100 µM | TGI (SF-295 CNS): > 100 µM | GI50 (SF-539 CNS): > 100 µM | TGI (SF-539 CNS): > 100 µM | GI50 (SK-MEL-2 melanoma): > 100 µM | TGI (SK-MEL-2 melanoma): > 100 µM | GI50 (SK-MEL-28 melanoma): > 100 µM | TGI (SK-MEL-28 melanoma): > 100 µM | GI50 (SK-MEL-5 melanoma): > 100 µM | TGI (SK-MEL-5 melanoma): > 100 µM | GI50 (SK-OV-3 ovarian): > 100 µM | TGI (SK-OV-3 ovarian): > 100 µM | GI50 (SN12C renal): > 100 µM | TGI (SN12C renal): > 100 µM | GI50 (SNB-19 CNS): > 100 µM | TGI (SNB-19 CNS): > 100 µM | GI50 (SNB-75 CNS): > 100 µM | TGI (SNB-75 CNS): > 100 µM | GI50 (SR leukemia): > 100 µM | TGI (SR leukemia): > 100 µM | GI50 (SW-620 colon): > 100 µM | TGI (SW-620 colon): > 100 µM | GI50 (T-47D breast): > 100 µM | TGI (T-47D breast): > 100 µM | GI50 (TK-10 renal): > 100 µM | TGI (TK-10 renal): > 100 µM | GI50 (U251 CNS): > 100 µM | TGI (U251 CNS): > 100 µM | GI50 (UACC-257 melanoma): > 100 µM | TGI (UACC-257 melanoma): > 100 µM | GI50 (UACC-62 melanoma): > 100 µM | TGI (UACC-62 melanoma): > 100 µM | GI50 (UO-31 renal): > 100 µM | TGI (UO-31 renal): > 100 µM
